# From paper PMC4468608, “A distinct p53 target gene set predicts for response to the selective p53–HDM2 inhibitor NVP-CGM097” (eLife, 2015)
# Tested on: cell lines from the Cancer Cell Line Encyclopedia (CCLE)
# Experiment: High-throughput cell viability assay, CCLE cell line panel (n = 356)
# Format: cell-based, human
# Protocol: Cell lines were partitioned into sensitive and insensitive groups based on compound potency (IC50). […] All other cell lines were obtained from ATCC (American Type Culture Collection), DSMZ (Deutsche Sammlung von Mikroorganismen und Zellkulturen), and HSRRB (Health Science Research Resources Bank) and cultured in RPMI or Dulbecco's modified Eagle's medium plus 10% FBS (Invitrogen, Carlsbad, CA) at 37°C, 5% CO2.
# [1] = cell line KMRC-1, kidney, TP53 WT
# [2] = cell line KMS-27, haem._and_lymphoid_tissue, TP53 WT
# [3] = cell line KMS-28BM, haem._and_lymphoid_tissue, TP53 WT
# [4] = cell line KNS-42, central_nervous_system, TP53 MUT
# [5] = cell line KYSE-410, oesophagus, TP53 MUT
# [6] = cell line KYSE-450, oesophagus, TP53 MUT
# [7] = cell line KYSE-510, oesophagus, TP53 MUT
# [8] = cell line KYSE-520, oesophagus, TP53 MUT
# [9] = cell line L-428, haem._and_lymphoid_tissue, TP53 MUT
# [10] = cell line LN-229, central_nervous_system, TP53 WT
# [11] = cell line MEL-HO, skin, TP53 WT
# [12] = cell line MHH-ES-1, bone, TP53 MUT
# [13] = cell line Malme-3M, skin, TP53 WT
# [14] = cell line NCI-H460, lung, TP53 WT
# [15] = cell line NCI-H647, lung, TP53 MUT
# [16] = cell line NCI-H1299, lung, TP53 WT
# [17] = cell line NCI-H1341, lung, TP53 WT
# [18] = cell line NCI-H1650, lung, TP53 MUT
# [19] = cell line NCI-H1693, lung, TP53 MUT
# [20] = cell line NCI-H1703, lung, TP53 MUT
# [21] = cell line OAW42, ovary, TP53 WT
# [22] = cell line OE19, oesophagus, TP53 MUT
# [23] = cell line OVCAR-8, ovary, TP53 MUT
# [24] = cell line PE/CA-PJ41 (clone D2), upper_aerodigestive_tract, TP53 MUT
# [25] = cell line PEER, haem._and_lymphoid_tissue, TP53 MUT
# [26] = cell line SCaBER, urinary_tract, TP53 MUT
# [27] = cell line SK-HEP-1, liver, TP53 WT
# [28] = cell line SK-MEL-5, skin, TP53 WT
# [29] = cell line SK-MEL-24, skin, TP53 WT
# [30] = cell line SNG-M, endometrium, TP53 WT
# [31] = cell line SNU-423, liver, TP53 MUT
# [32] = cell line SW403, large_intestine, TP53 MUT
# [33] = cell line SW 780, urinary_tract, TP53 WT
# [34] = cell line SW 1573, lung, TP53 WT
# [35] = cell line TE-9, oesophagus, TP53 MUT
# [36] = cell line TE-11, oesophagus, TP53 MUT
# [37] = cell line UM-UC-3, urinary_tract, TP53 MUT
# [38] = cut-off IC50 4 µM, 356 cell lines
smiles,measurement,setting,value
COc1cc2c(cc1OC(C)C)[C@H](c1ccc(Cl)cc1)N(c1ccc(N(C)C[C@H]3CC[C@H](N4CCNC(=O)C4)CC3)cc1)C(=O)C2 [NVP-CFC218],NVP- CFC218 sensitivity call,"cell line JHOS-2, ovary, TP53 MUT",insensitive (Sensitivity call for each compound was applied according to a cut-off of 4 µM for IC50 and -50% for Amax)
same,NVP- CFC218 Amax (%),[1],-42.40%
same,NVP- CFC218 sensitivity call,[1],insensitive (Sensitivity call for each compound was applied according to a cut-off of 4 µM for IC50 and -50% for Amax)
same,NVP- CFC218 Amax (%),[2],-1.14%
same,NVP- CFC218 sensitivity call,[2],insensitive (Sensitivity call for each compound was applied according to a cut-off of 4 µM for IC50 and -50% for Amax)
same,NVP- CFC218 Amax (%),[3],3.74%
same,NVP- CFC218 sensitivity call,[3],insensitive (Sensitivity call for each compound was applied according to a cut-off of 4 µM for IC50 and -50% for Amax)
same,NVP- CFC218 Amax (%),[4],-8.48%
same,NVP- CFC218 sensitivity call,[4],insensitive (Sensitivity call for each compound was applied according to a cut-off of 4 µM for IC50 and -50% for Amax)
same,NVP- CFC218 Amax (%),[5],-24.33%
same,NVP- CFC218 sensitivity call,[5],insensitive (Sensitivity call for each compound was applied according to a cut-off of 4 µM for IC50 and -50% for Amax)
same,NVP- CFC218 Amax (%),[6],-1.37%
same,NVP- CFC218 sensitivity call,[6],insensitive (Sensitivity call for each compound was applied according to a cut-off of 4 µM for IC50 and -50% for Amax)
same,NVP- CFC218 Amax (%),[7],3.18%
same,NVP- CFC218 sensitivity call,[7],insensitive (Sensitivity call for each compound was applied according to a cut-off of 4 µM for IC50 and -50% for Amax)
same,NVP- CFC218 Amax (%),[8],-5.52%
same,NVP- CFC218 sensitivity call,[8],insensitive (Sensitivity call for each compound was applied according to a cut-off of 4 µM for IC50 and -50% for Amax)
same,NVP- CFC218 Amax (%),[9],-26.31%
same,NVP- CFC218 sensitivity call,[9],insensitive (Sensitivity call for each compound was applied according to a cut-off of 4 µM for IC50 and -50% for Amax)
same,NVP- CFC218 Amax (%),[10],-42.01%
same,NVP- CFC218 sensitivity call,[10],insensitive (Sensitivity call for each compound was applied according to a cut-off of 4 µM for IC50 and -50% for Amax)
same,NVP- CFC218 Amax (%),[11],-40.38%
same,NVP- CFC218 sensitivity call,[11],insensitive (Sensitivity call for each compound was applied according to a cut-off of 4 µM for IC50 and -50% for Amax)
same,NVP- CFC218 Amax (%),[12],1.25%
same,NVP- CFC218 sensitivity call,[12],insensitive (Sensitivity call for each compound was applied according to a cut-off of 4 µM for IC50 and -50% for Amax)
same,NVP- CFC218 Amax (%),[13],-39.40%
same,NVP- CFC218 sensitivity call,[13],insensitive (Sensitivity call for each compound was applied according to a cut-off of 4 µM for IC50 and -50% for Amax)
same,NVP- CFC218 Amax (%),[14],0.31%
same,NVP- CFC218 sensitivity call,[14],insensitive (Sensitivity call for each compound was applied according to a cut-off of 4 µM for IC50 and -50% for Amax)
same,NVP- CFC218 Amax (%),[15],-29.54%
same,NVP- CFC218 sensitivity call,[15],insensitive (Sensitivity call for each compound was applied according to a cut-off of 4 µM for IC50 and -50% for Amax)
same,NVP- CFC218 Amax (%),[16],0.83%
same,NVP- CFC218 sensitivity call,[16],insensitive (Sensitivity call for each compound was applied according to a cut-off of 4 µM for IC50 and -50% for Amax)
same,NVP- CFC218 Amax (%),[17],-36.36%
same,NVP- CFC218 sensitivity call,[17],insensitive (Sensitivity call for each compound was applied according to a cut-off of 4 µM for IC50 and -50% for Amax)
same,NVP- CFC218 Amax (%),[18],2.72%
same,NVP- CFC218 sensitivity call,[18],insensitive (Sensitivity call for each compound was applied according to a cut-off of 4 µM for IC50 and -50% for Amax)
same,NVP- CFC218 Amax (%),[19],-4.47%
same,NVP- CFC218 sensitivity call,[19],insensitive (Sensitivity call for each compound was applied according to a cut-off of 4 µM for IC50 and -50% for Amax)
same,NVP- CFC218 Amax (%),[20],-40.27%
same,NVP- CFC218 sensitivity call,[20],insensitive (Sensitivity call for each compound was applied according to a cut-off of 4 µM for IC50 and -50% for Amax)
same,NVP- CFC218 Amax (%),[21],-7.13%
same,NVP- CFC218 sensitivity call,[21],insensitive (Sensitivity call for each compound was applied according to a cut-off of 4 µM for IC50 and -50% for Amax)
same,NVP- CFC218 Amax (%),[22],14.48%
same,NVP- CFC218 sensitivity call,[22],insensitive (Sensitivity call for each compound was applied according to a cut-off of 4 µM for IC50 and -50% for Amax)
same,NVP- CFC218 Amax (%),[23],-30.79%
same,NVP- CFC218 sensitivity call,[23],insensitive (Sensitivity call for each compound was applied according to a cut-off of 4 µM for IC50 and -50% for Amax)
same,NVP- CFC218 Amax (%),[24],-0.29%
same,NVP- CFC218 sensitivity call,[24],insensitive (Sensitivity call for each compound was applied according to a cut-off of 4 µM for IC50 and -50% for Amax)
same,NVP- CFC218 Amax (%),[25],-46.94%
same,NVP- CFC218 sensitivity call,[25],insensitive (Sensitivity call for each compound was applied according to a cut-off of 4 µM for IC50 and -50% for Amax)
same,NVP- CFC218 Amax (%),[26],0.88%
same,NVP- CFC218 sensitivity call,[26],insensitive (Sensitivity call for each compound was applied according to a cut-off of 4 µM for IC50 and -50% for Amax)
same,NVP- CFC218 Amax (%),[27],-41.72%
same,NVP- CFC218 sensitivity call,[27],insensitive (Sensitivity call for each compound was applied according to a cut-off of 4 µM for IC50 and -50% for Amax)
same,NVP- CFC218 Amax (%),[28],-47.83%
same,NVP- CFC218 sensitivity call,[28],insensitive (Sensitivity call for each compound was applied according to a cut-off of 4 µM for IC50 and -50% for Amax)
same,NVP- CFC218 Amax (%),[29],-47.55%
same,NVP- CFC218 sensitivity call,[29],insensitive (Sensitivity call for each compound was applied according to a cut-off of 4 µM for IC50 and -50% for Amax)
same,NVP- CFC218 Amax (%),[30],-25.75%
same,NVP- CFC218 sensitivity call,[30],insensitive (Sensitivity call for each compound was applied according to a cut-off of 4 µM for IC50 and -50% for Amax)
same,NVP- CFC218 Amax (%),[31],-5.91%
same,NVP- CFC218 sensitivity call,[31],insensitive (Sensitivity call for each compound was applied according to a cut-off of 4 µM for IC50 and -50% for Amax)
same,NVP- CFC218 Amax (%),[32],51.39%
same,NVP- CFC218 sensitivity call,[32],insensitive (Sensitivity call for each compound was applied according to a cut-off of 4 µM for IC50 and -50% for Amax)
same,NVP- CFC218 Amax (%),[33],-38.52%
same,NVP- CFC218 sensitivity call,[33],insensitive (Sensitivity call for each compound was applied according to a cut-off of 4 µM for IC50 and -50% for Amax)
same,NVP- CFC218 Amax (%),[34],-48.52%
same,NVP- CFC218 sensitivity call,[34],insensitive (Sensitivity call for each compound was applied according to a cut-off of 4 µM for IC50 and -50% for Amax)
same,NVP- CFC218 Amax (%),"cell line Sq-1, lung, TP53 WT",4.40%
same,NVP- CFC218 sensitivity call,"cell line Sq-1, lung, TP53 WT",insensitive (Sensitivity call for each compound was applied according to a cut-off of 4 µM for IC50 and -50% for Amax)
same,NVP- CFC218 Amax (%),[35],-6.46%
same,NVP- CFC218 sensitivity call,[35],insensitive (Sensitivity call for each compound was applied according to a cut-off of 4 µM for IC50 and -50% for Amax)
same,NVP- CFC218 Amax (%),[36],-3.43%
same,NVP- CFC218 sensitivity call,[36],insensitive (Sensitivity call for each compound was applied according to a cut-off of 4 µM for IC50 and -50% for Amax)
same,NVP- CFC218 Amax (%),[37],-27.23%
same,NVP- CFC218 sensitivity call,[37],insensitive (Sensitivity call for each compound was applied according to a cut-off of 4 µM for IC50 and -50% for Amax)
same,NVP- CFC218 Amax (%),"cell line WM-88, skin, TP53 WT",-37.15%
same,NVP- CFC218 sensitivity call,"cell line WM-88, skin, TP53 WT",insensitive (Sensitivity call for each compound was applied according to a cut-off of 4 µM for IC50 and -50% for Amax)
same,"Number of insensitive cell lines, p53MUT",[38],252
same,"Number of insensitive cell lines, p53WT",[38],57
same,"Number of insensitive cell lines, total",[38],309
same,"Number of sensitive cell lines, p53MUT",[38],4
same,"Number of sensitive cell lines, p53WT",[38],43
same,baseline response rate without prior stratification,estimated from the NVP-CFC218 sensitivity data,19%
same,maximal compound effect level (Amax),for the sensitive cell lines,≤ −50%
